Experimental data taken from ChEMBL document CHEMBL3112480, “γ-Alkylidene-γ-lactones and isobutylpyrrol-2(5H)-ones analogues to rubrolides as inhibitors of biofilm formation by gram-positive and gram-negative bacteria” (Bioorg Med Chem Lett, 2014).
≈ marks a conversion by molar mass, not a printed value.

Key:
Streptococcus mutans [1] = assay: Antibacterial activity against Streptococcus mutans ATCC 25175 assessed as effect on planktonic growth at 21.9 ug/ml after 20 hrs relative to control; format: functional
Pseudomonas aeruginosa [2] = assay: Antibacterial activity against Pseudomonas aeruginosa ATCC 27853 assessed as effect on planktonic growth at 43.8 ug/ml after 20 hrs relative to control; format: functional
Staphylococcus aureus [3] = assay: Antibacterial activity against Staphylococcus aureus ATCC 25923 assessed as effect on planktonic growth at 10.9 ug/ml after 20 hrs relative to control; format: functional
[4] = tested on: Staphylococcus epidermidis; assay: Antibacterial activity against Staphylococcus epidermidis ATCC 35547 assessed as effect on planktonic growth at 21.9 ug/ml after 20 hrs relative to control; format: functional
[5] = tested on: Staphylococcus epidermidis; assay: Antibacterial activity against Staphylococcus epidermidis ATCC 35547 assessed as effect on planktonic growth at 0.17 ug/ml after 20 hrs relative to control; format: functional
Streptococcus mutans [6] = assay: Antibacterial activity against Streptococcus mutans ATCC 25175 assessed as effect on planktonic growth at 1.37 ug/ml after 20 hrs relative to control; format: functional
[7] = tested on: Staphylococcus epidermidis; assay: Antibacterial activity against Staphylococcus epidermidis ATCC 35547 assessed as effect on planktonic growth at 5.5 ug/ml after 20 hrs relative to control; format: functional
Staphylococcus aureus [8] = assay: Antibacterial activity against Staphylococcus aureus ATCC 25923 assessed as effect on planktonic growth at 1.37 ug/ml after 20 hrs relative to control; format: functional
Pseudomonas aeruginosa [9] = assay: Antibacterial activity against Pseudomonas aeruginosa ATCC 27853 assessed as effect on planktonic growth at 1.37 ug/ml after 20 hrs relative to control; format: functional
Staphylococcus aureus [10] = assay: Antibacterial activity against Staphylococcus aureus ATCC 25923 assessed as effect on planktonic growth at 0.17 ug/ml after 20 hrs relative to control; format: functional
Pseudomonas aeruginosa [11] = assay: Antibacterial activity against Pseudomonas aeruginosa ATCC 27853 assessed as inhibition of biofilm formation after 20 hrs by crystal-violet staining method; format: functional, organism-based
Pseudomonas aeruginosa [12] = assay: Antibacterial activity against Pseudomonas aeruginosa ATCC 27853 assessed as effect on planktonic growth at 0.17 ug/ml after 20 hrs relative to control; format: functional
[13] = tested on: Staphylococcus epidermidis; assay: Antibacterial activity against Staphylococcus epidermidis ATCC 35547 assessed as effect on planktonic growth at 2.73 ug/ml after 20 hrs relative to control; format: functional
Streptococcus mutans [14] = assay: Antibacterial activity against Streptococcus mutans ATCC 25175 assessed as effect on planktonic growth at 0.34 ug/ml after 20 hrs relative to control; format: functional
Pseudomonas aeruginosa [15] = assay: Antibacterial activity against Pseudomonas aeruginosa ATCC 27853 assessed as effect on planktonic growth at 87.5 ug/ml after 20 hrs relative to control; format: functional
Streptococcus mutans [16] = assay: Antibacterial activity against Streptococcus mutans ATCC 25175 assessed as effect on planktonic growth at 87.5 ug/ml after 20 hrs relative to control; format: functional
Streptococcus mutans [17] = assay: Antibacterial activity against Streptococcus mutans ATCC 25175 assessed as effect on planktonic growth at 43.8 ug/ml after 20 hrs relative to control; format: functional
Staphylococcus aureus [18] = assay: Antibacterial activity against Staphylococcus aureus ATCC 25923 assessed as effect on planktonic growth at 2.73 ug/ml after 20 hrs relative to control; format: functional
Staphylococcus aureus [19] = assay: Antibacterial activity against Staphylococcus aureus ATCC 25923 assessed as effect on planktonic growth at 0.68 ug/ml after 20 hrs relative to control; format: functional
Staphylococcus aureus [20] = assay: Antibacterial activity against Staphylococcus aureus ATCC 25923 assessed as effect on planktonic growth at 0.34 ug/ml after 20 hrs relative to control; format: functional
Streptococcus mutans [21] = assay: Antibacterial activity against Streptococcus mutans ATCC 25175 assessed as effect on planktonic growth at 2.73 ug/ml after 20 hrs relative to control; format: functional
Pseudomonas aeruginosa [22] = assay: Antibacterial activity against Pseudomonas aeruginosa ATCC 27853 assessed as effect on planktonic growth at 10.9 ug/ml after 20 hrs relative to control; format: functional
Pseudomonas aeruginosa [23] = assay: Antibacterial activity against Pseudomonas aeruginosa ATCC 27853 assessed as effect on planktonic growth at 0.34 ug/ml after 20 hrs relative to control; format: functional
[24] = tested on: Staphylococcus epidermidis; assay: Antibacterial activity against Staphylococcus epidermidis ATCC 35547 assessed as effect on planktonic growth at 1.37 ug/ml after 20 hrs relative to control; format: functional
Streptococcus mutans [25] = assay: Antibacterial activity against Streptococcus mutans ATCC 25175 assessed as effect on planktonic growth at 0.17 ug/ml after 20 hrs relative to control; format: functional
Staphylococcus aureus [26] = assay: Antibacterial activity against Staphylococcus aureus ATCC 25923 assessed as effect on planktonic growth at 87.5 ug/ml after 20 hrs relative to control; format: functional
Staphylococcus aureus [27] = assay: Antibacterial activity against Staphylococcus aureus ATCC 25923 assessed as effect on planktonic growth at 21.9 ug/ml after 20 hrs relative to control; format: functional
Pseudomonas aeruginosa [28] = assay: Antibacterial activity against Pseudomonas aeruginosa ATCC 27853 assessed as effect on planktonic growth at 5.5 ug/ml after 20 hrs relative to control; format: functional
Pseudomonas aeruginosa [29] = assay: Antibacterial activity against Pseudomonas aeruginosa ATCC 27853 assessed as effect on planktonic growth at 21.9 ug/ml after 20 hrs relative to control; format: functional
[30] = tested on: Staphylococcus epidermidis; assay: Antibacterial activity against Staphylococcus epidermidis ATCC 35547 assessed as inhibition of biofilm formation after 20 hrs by crystal-violet staining method; format: functional, organism-based; details: for IC50: ATCC 35547, 20 h
[31] = tested on: Staphylococcus epidermidis; assay: Antibacterial activity against Staphylococcus epidermidis ATCC 35547 assessed as effect on planktonic growth at 0.68 ug/ml after 20 hrs relative to control; format: functional
Pseudomonas aeruginosa [32] = assay: Antibacterial activity against Pseudomonas aeruginosa ATCC 27853 assessed as effect on planktonic growth at 0.68 ug/ml after 20 hrs relative to control; format: functional
Streptococcus mutans [33] = assay: Antibacterial activity against Streptococcus mutans ATCC 25175 assessed as effect on planktonic growth at 10.9 ug/ml after 20 hrs relative to control; format: functional
Staphylococcus aureus [34] = assay: Antibacterial activity against Staphylococcus aureus ATCC 25923 assessed as effect on planktonic growth at 43.8 ug/ml after 20 hrs relative to control; format: functional
Streptococcus mutans [35] = assay: Antibacterial activity against Streptococcus mutans ATCC 25175 assessed as effect on planktonic growth at 0.68 ug/ml after 20 hrs relative to control; format: functional
[36] = tested on: Staphylococcus epidermidis; assay: Antibacterial activity against Staphylococcus epidermidis ATCC 35547 assessed as effect on planktonic growth at 10.9 ug/ml after 20 hrs relative to control; format: functional
Streptococcus mutans [37] = assay: Antibacterial activity against Streptococcus mutans ATCC 25175 assessed as effect on planktonic growth at 5.5 ug/ml after 20 hrs relative to control; format: functional
[38] = tested on: Staphylococcus epidermidis; assay: Antibacterial activity against Staphylococcus epidermidis ATCC 35547 assessed as effect on planktonic growth at 43.8 ug/ml after 20 hrs relative to control; format: functional
[39] = tested on: Staphylococcus epidermidis; assay: Antibacterial activity against Staphylococcus epidermidis ATCC 35547 assessed as effect on planktonic growth at 0.34 ug/ml after 20 hrs relative to control; format: functional
Pseudomonas aeruginosa [40] = assay: Antibacterial activity against Pseudomonas aeruginosa ATCC 27853 assessed as effect on planktonic growth at 2.73 ug/ml after 20 hrs relative to control; format: functional
[41] = tested on: Staphylococcus epidermidis; assay: Antibacterial activity against Staphylococcus epidermidis ATCC 35547 assessed as effect on planktonic growth at 87.5 ug/ml after 20 hrs relative to control; format: functional
Staphylococcus aureus [42] = assay: Antibacterial activity against Staphylococcus aureus ATCC 25923 assessed as effect on planktonic growth at 5.5 ug/ml after 20 hrs relative to control; format: functional

COc1ccc(Br)cc1C1=C(Br)C(=O)N(CC(C)C)/C1=C\c1cccc(Cl)c1
Activity (Streptococcus mutans [1]): -10.1%
Activity (Pseudomonas aeruginosa [2]): -5.6%
Activity (Staphylococcus aureus [3]): 2.4%
Activity [4]: 57.9%
Activity [5]: 2.2%
Activity (Streptococcus mutans [6]): 2.7%
Activity [7]: 2.1%
Activity (Staphylococcus aureus [8]): -7.2%
Activity (Pseudomonas aeruginosa [9]): 3%
Activity (Staphylococcus aureus [10]): -3.5%
inhibition (Pseudomonas aeruginosa [11]): Dose-dependent effect
IC50 (Pseudomonas aeruginosa [11]; ATCC 27853, 20 h): > 87.5 µg/mL
Activity (Pseudomonas aeruginosa [12]): 0.6%
Activity [13]: 6.8%
Activity (Streptococcus mutans [14]): 6.7%
Activity (Pseudomonas aeruginosa [15]): 14.6%
Activity (Streptococcus mutans [16]): -4%
Activity (Streptococcus mutans [17]): -15.3%
Activity (Staphylococcus aureus [18]): -2.7%
Activity (Staphylococcus aureus [19]): 1.1%
Activity (Staphylococcus aureus [20]): -1.1%
Activity (Streptococcus mutans [21]): -6.2%
Activity (Pseudomonas aeruginosa [22]): -9%
Activity (Pseudomonas aeruginosa [23]): -4.4%
Activity [24]: 9.8%
Activity (Streptococcus mutans [25]): -1.2%
Activity (Staphylococcus aureus [26]): 18.4%
Activity (Staphylococcus aureus [27]): 5.1%
Activity (Pseudomonas aeruginosa [28]): -3.1%
Activity (Pseudomonas aeruginosa [29]): -4.8%
inhibition [30]: Dose-dependent effect
IC50 [30]: 31.1 µg/mL (≈ 59.2 µM)
Activity [31]: 5.6%
Activity (Pseudomonas aeruginosa [32]): -0.3%
Activity (Streptococcus mutans [33]): -19.1%
Activity (Staphylococcus aureus [34]): 16.3%
Activity (Streptococcus mutans [35]): 11.4%
Activity [36]: 23.2%
Activity (Streptococcus mutans [37]): 1.5%
Activity [38]: 84.7%
Activity [39]: 6.4%
Activity (Pseudomonas aeruginosa [40]): 0.1%
Activity [41]: 72.2%
Activity (Staphylococcus aureus [42]): 0.5%

COc1ccc(Br)cc1C1=C(Br)C(=O)N(CC(C)C)C1(O)Cc1cccc(Cl)c1 (stereo not given)
Activity (Streptococcus mutans [1]): 15.4%
Activity (Pseudomonas aeruginosa [2]): 4.3%
Activity (Staphylococcus aureus [3]): 4.2%
Activity [4]: 30.2%
Activity [5]: 17.5%
Activity (Streptococcus mutans [6]): 12.1%
Activity [7]: 24.3%
Activity (Staphylococcus aureus [8]): -2%
Activity (Pseudomonas aeruginosa [9]): -6.6%
Activity (Staphylococcus aureus [10]): -4.6%
inhibition (Pseudomonas aeruginosa [11]): Dose-dependent effect
Activity (Pseudomonas aeruginosa [12]): -7.3%
Activity [13]: 20.9%
Activity (Streptococcus mutans [14]): 5.5%
Activity (Pseudomonas aeruginosa [15]): 3.3%
Activity (Streptococcus mutans [16]): 26.1%
Activity (Streptococcus mutans [17]): 16.9%
Activity (Staphylococcus aureus [18]): 0.6%
Activity (Staphylococcus aureus [19]): 3.1%
Activity (Staphylococcus aureus [20]): 6.1%
Activity (Streptococcus mutans [21]): 7%
Activity (Pseudomonas aeruginosa [22]): 3.2%
Activity (Pseudomonas aeruginosa [23]): -5.4%
Activity [24]: 22.8%
Activity (Streptococcus mutans [25]): 1.1%
Activity (Staphylococcus aureus [26]): 35.1%
Activity (Staphylococcus aureus [27]): 23.8%
Activity (Pseudomonas aeruginosa [28]): -3.1%
Activity (Pseudomonas aeruginosa [29]): 1.4%
inhibition [30]: Dose-dependent effect
IC50 [30]: > 87.5 µg/mL
Activity [31]: 23.2%
Activity (Pseudomonas aeruginosa [32]): -9%
Activity (Streptococcus mutans [33]): 6.6%
Activity (Staphylococcus aureus [34]): 30.3%
Activity (Streptococcus mutans [35]): 10.3%
Activity [36]: 25.8%
Activity (Streptococcus mutans [37]): 9.6%
Activity [38]: 35.9%
Activity [39]: 34.1%
Activity (Pseudomonas aeruginosa [40]): 0.1%
Activity [41]: 38.2%
Activity (Staphylococcus aureus [42]): 16.6%

COc1ccccc1C1=C(Br)C(=O)N(CC(C)C)/C1=C\c1ccc(C(F)(F)F)cc1
Activity (Streptococcus mutans [1]): -11.6%
Activity (Pseudomonas aeruginosa [2]): 44%
Activity (Staphylococcus aureus [3]): -33.8%
Activity [4]: 38.7%
Activity [5]: -22.1%
Activity (Streptococcus mutans [6]): 10.7%
Activity [7]: -14.8%
Activity (Staphylococcus aureus [8]): -30.9%
Activity (Pseudomonas aeruginosa [9]): -5.9%
Activity (Staphylococcus aureus [10]): -5.8%
inhibition (Pseudomonas aeruginosa [11]): Dose-dependent effect
Activity (Pseudomonas aeruginosa [12]): -2.1%
Activity [13]: -21.2%
Activity (Streptococcus mutans [14]): 0.6%
Activity (Pseudomonas aeruginosa [15]): 35.2%
Activity (Streptococcus mutans [16]): 3.6%
Activity (Streptococcus mutans [17]): -13.5%
Activity (Staphylococcus aureus [18]): -35.6%
Activity (Staphylococcus aureus [19]): -18.1%
Activity (Staphylococcus aureus [20]): -14.7%
Activity (Streptococcus mutans [21]): 14%
Activity (Pseudomonas aeruginosa [22]): 35.6%
Activity (Pseudomonas aeruginosa [23]): -1.7%
Activity [24]: -17.9%
Activity (Streptococcus mutans [25]): 0.3%
Activity (Staphylococcus aureus [26]): 1.8%
Activity (Staphylococcus aureus [27]): -29.3%
Activity (Pseudomonas aeruginosa [28]): -1.7%
Activity (Pseudomonas aeruginosa [29]): 53.2%
inhibition [30]: Dose-dependent effect
IC50 [30]: 23 µg/mL (≈ 47.9 µM)
Activity [31]: -13.2%
Activity (Pseudomonas aeruginosa [32]): 0.1%
Activity (Streptococcus mutans [33]): -12.9%
Activity (Staphylococcus aureus [34]): -15.4%
Activity (Streptococcus mutans [35]): 5.5%
Activity [36]: 6.6%
Activity (Streptococcus mutans [37]): -3%
Activity [38]: 37.8%
Activity [39]: -17%
Activity (Pseudomonas aeruginosa [40]): -9.2%
Activity [41]: -6.3%
Activity (Staphylococcus aureus [42]): -33.5%
